According to ChEMBL document CHEMBL3297661, “1-Substituted-5-[(3,5-dinitrobenzyl)sulfanyl]-1H-tetrazoles and their isosteric analogs: A new class of selective antitubercular agents active against drug-susceptible and multidrug-resistant mycobacteria” (Eur J Med Chem, 2014):
Converted amounts (≈) assume the structure as drawn.

Columns and labels:
HepG2 = assay: Cytotoxicity against human HepG2 cells assessed as reduction in cell viability after 48 hrs by MTT assay; format: cell-based; conditions: HepG2, 48 h
Staphylococcus aureus [1] = assay: Antibacterial activity against Staphylococcus aureus ATCC 6538 after 24 hrs by broth microdilution method; format: functional; conditions: ATCC 6538, 24 h
Candida albicans [2] = assay: Antifungal activity against Candida albicans ATCC 44859 after 24 hrs by broth microdilution method; format: functional; conditions: ATCC 44859, 24 h
Mycobacterium kansasii [3] = assay: Antimycobacterial activity against Mycobacterium kansasii CNCTC My 235/80 after 7 days by micromethod; format: functional; conditions: CNCTC My 235/80, 168 h
Lichtheimia corymbifera [4] = assay: Antifungal activity against Absidia corymbifera 272 after 24 hrs by broth microdilution method; format: functional, organism-based; conditions: Lichtheimia corymbifera, 272, 24 h
Mycobacterium avium [5] = assay: Antimycobacterial activity against Mycobacterium avium CNCTC My 330/88 after 14 days by micromethod; format: functional; conditions: CNCTC My 330/88, 336 h
Nakaseomyces glabratus [6] = assay: Antifungal activity against Candida glabrata 20/I after 48 hrs by broth microdilution method; format: functional
[7] = tested on: Mycobacterium tuberculosis; assay: Antimycobacterial activity against Mycobacterium tuberculosis CNCTC My 331/88 after 14 days by micromethod; format: functional; conditions: CNCTC My 331/88, 336 h
[8] = Cytotoxicity against MDCK2 cells assessed as cell viability at 30 uM after 48 hrs by MTT assay; format: cell-based, Canis lupus familiaris, MDCK-II; conditions: dog, read-out: Activity
Candida tropicalis [9] = assay: Antifungal activity against Candida tropicalis 156 after 24 hrs by broth microdilution method; format: functional; conditions: Candida tropicalis, 156, 24 h
Klebsiella pneumoniae [10] = assay: Antibacterial activity against Klebsiella pneumoniae D 11750/08 after 24 hrs by broth microdilution method; format: functional; conditions: D 11750/08, 24 h
Trichosporon asahii [11] = assay: Antifungal activity against Trichosporon asahii 1188 after 48 hrs by broth microdilution method; format: functional; conditions: Trichosporon asahii, 1188, 48 h
Nakaseomyces glabratus [12] = assay: Antifungal activity against Candida glabrata 20/I after 24 hrs by broth microdilution method; format: functional
[13] = tested on: Trichophyton mentagrophytes; assay: Antifungal activity against Trichophyton mentagrophytes 445 after 120 hrs by broth microdilution method; format: functional, organism-based; conditions: Trichophyton mentagrophytes, 445, 120 h
Enterococcus faecalis [14] = assay: Antibacterial activity against Enterococcus faecalis J 14365/08 after 24 hrs by broth microdilution method; format: functional; conditions: J 14365/08, 24 h
Staphylococcus aureus [15] = assay: Antibacterial activity against methicillin-resistant Staphylococcus aureus H 5996/08 after 24 hrs by broth microdilution method; format: functional; conditions: H 5996/08, 24 h
Trichosporon asahii [16] = assay: Antifungal activity against Trichosporon asahii 1188 after 24 hrs by broth microdilution method; format: functional; conditions: Trichosporon asahii, 1188, 24 h
Aspergillus fumigatus [17] = assay: Antifungal activity against Aspergillus fumigatus 231 after 48 hrs by broth microdilution method; format: functional, organism-based; conditions: Aspergillus fumigatus, 231, 48 h
Staphylococcus aureus [18] = assay: Antibacterial activity against Staphylococcus aureus ATCC 6538 after 48 hrs by broth microdilution method; format: functional; conditions: ATCC 6538, 48 h
Mycobacterium avium [19] = assay: Antimycobacterial activity against Mycobacterium avium CNCTC My 330/88 after 21 days by micromethod; format: functional; conditions: CNCTC My 330/88, 504 h
Klebsiella pneumoniae [20] = assay: Antibacterial activity against extended spectrum beta-lactamase producing Klebsiella pneumoniae J 14368/08 after 24 hrs by broth microdilution method; format: functional; conditions: J 14368/08, 24 h
Lichtheimia corymbifera [21] = assay: Antifungal activity against Absidia corymbifera 272 after 48 hrs by broth microdilution method; format: functional, organism-based; conditions: Lichtheimia corymbifera, 272, 48 h
Escherichia coli [22] = assay: Antibacterial activity against Escherichia coli ATCC 8739 after 48 hrs by broth microdilution method; format: functional; conditions: ATCC 8739, ATCC 8739, 48 h
Aspergillus fumigatus [23] = assay: Antifungal activity against Aspergillus fumigatus 231 after 24 hrs by broth microdilution method; format: functional, organism-based; conditions: Aspergillus fumigatus, 231, 24 h
Klebsiella pneumoniae [24] = assay: Antibacterial activity against Klebsiella pneumoniae D 11750/08 after 48 hrs by broth microdilution method; format: functional; conditions: D 11750/08, 48 h
Mycobacterium kansasii [25] = assay: Antimycobacterial activity against Mycobacterium kansasii 6509/96 after 7 days by micromethod; format: functional; conditions: 6509/96, 168 h
Candida tropicalis [26] = assay: Antifungal activity against Candida tropicalis 156 after 48 hrs by broth microdilution method; format: functional; conditions: Candida tropicalis, 156, 48 h
[27] = tested on: Trichophyton mentagrophytes; assay: Antifungal activity against Trichophyton mentagrophytes 445 after 72 hrs by broth microdilution method; format: functional, organism-based; conditions: Trichophyton mentagrophytes, 445, 72 h
[28] = tested on: Mycobacterium tuberculosis; assay: Antimycobacterial activity against Mycobacterium tuberculosis CNCTC My 331/88 after 21 days by micromethod; format: functional; conditions: CNCTC My 331/88, 504 h
Pichia kudriavzevii [29] = assay: Antifungal activity against Candida krusei E28 after 48 hrs by broth microdilution method; format: functional; conditions: E28, 48 h
Pseudomonas aeruginosa [30] = assay: Antibacterial activity against Pseudomonas aeruginosa ATCC 9027 after 24 hrs by broth microdilution method; format: functional; conditions: ATCC 9027, 24 h
Staphylococcus aureus [31] = assay: Antibacterial activity against methicillin-resistant Staphylococcus aureus H 5996/08 after 48 hrs by broth microdilution method; format: functional; conditions: H 5996/08, 48 h
Pichia kudriavzevii [32] = assay: Antifungal activity against Candida krusei E28 after 24 hrs by broth microdilution method; format: functional; conditions: E28, 24 h
Klebsiella pneumoniae [33] = assay: Antibacterial activity against extended spectrum beta-lactamase producing Klebsiella pneumoniae J 14368/08 after 48 hrs by broth microdilution method; format: functional; conditions: J 14368/08, 48 h
[34] = Cytotoxicity against human HuH7 cells assessed as reduction in cell viability after 48 hrs by MTT assay; format: cell-based; conditions: Huh-7, 48 h
Mycobacterium kansasii [35] = assay: Antimycobacterial activity against Mycobacterium kansasii CNCTC My 235/80 after 14 days by micromethod; format: functional; conditions: CNCTC My 235/80, 336 h
Enterococcus faecalis [36] = assay: Antibacterial activity against Enterococcus faecalis J 14365/08 after 48 hrs by broth microdilution method; format: functional; conditions: J 14365/08, 48 h
[37] = Cytotoxicity against human HeLa cells assessed as cell viability at 30 uM after 48 hrs by MTT assay; format: cell-based; conditions: read-out: Activity
Mycobacterium kansasii [38] = assay: Antimycobacterial activity against Mycobacterium kansasii 6509/96 after 14 days by micromethod; format: functional; conditions: 6509/96, 336 h
Mycobacterium kansasii [39] = assay: Antimycobacterial activity against Mycobacterium kansasii CNCTC My 235/80 after 21 days by micromethod; format: functional; conditions: CNCTC My 235/80, 504 h
[40] = Cytotoxicity against human HuH7 cells assessed as cell viability at 30 uM after 48 hrs by MTT assay; format: cell-based, Huh-7; conditions: read-out: Activity
[41] = tested on: Staphylococcus epidermidis; assay: Antibacterial activity against Staphylococcus epidermidis H 6966/08 after 48 hrs by broth microdilution method; format: functional; conditions: H 6966/08, 48 h
Mycobacterium kansasii [42] = assay: Antimycobacterial activity against Mycobacterium kansasii 6509/96 after 21 days by micromethod; format: functional; conditions: 6509/96, 504 h
Pseudomonas aeruginosa [43] = assay: Antibacterial activity against Pseudomonas aeruginosa ATCC 9027 after 48 hrs by broth microdilution method; format: functional; conditions: ATCC 9027, 48 h
[44] = Cytotoxicity against human HepG2 cells assessed as cell viability at 30 uM after 48 hrs by MTT assay; format: cell-based; conditions: read-out: Activity
Escherichia coli [45] = assay: Antibacterial activity against Escherichia coli ATCC 8739 after 24 hrs by broth microdilution method; format: functional; conditions: ATCC 8739, ATCC 8739, 24 h
[46] = tested on: Staphylococcus epidermidis; assay: Antibacterial activity against Staphylococcus epidermidis H 6966/08 after 24 hrs by broth microdilution method; format: functional; conditions: H 6966/08, 24 h
HeLa = assay: Cytotoxicity against human HeLa cells assessed as reduction in cell viability after 48 hrs by MTT assay; format: cell-based
[47] = Cytotoxicity against MDCK2 cells assessed as reduction in cell viability after 48 hrs by MTT assay; format: cell-based; conditions: Canis lupus familiaris, MDCK-II
Candida albicans [48] = assay: Antifungal activity against Candida albicans ATCC 44859 after 48 hrs by broth microdilution method; format: functional; conditions: ATCC 44859, 48 h

O=[N+]([O-])c1cc(CSc2nnnn2-c2ccc(Cl)c(Cl)c2)cc([N+](=O)[O-])c1 showed an IC50 (HepG2) of 26 µM, an IC95 (Staphylococcus aureus [1]) greater than 125 µM and an IC80 (Candida albicans [2]) greater than 125 µM. For the same molecule, the MIC (Mycobacterium kansasii [3]) was 1 µM (≈ 0.427 µg/mL), the IC50 (Lichtheimia corymbifera [4]) was greater than 125 µM and the MIC (Mycobacterium avium [5]) was 8 µM (≈ 3.42 µg/mL). The IC80 (Nakaseomyces glabratus [6]) was greater than 125 µM, the MIC [7] was 1 µM (≈ 0.427 µg/mL) and the viability at 48 h, 30 µM [8] was 53%. It also gave an IC80 (Candida tropicalis [9]) greater than 125 µM, an IC95 (Klebsiella pneumoniae [10]) greater than 125 µM and an IC80 (Trichosporon asahii [11]) greater than 125 µM. For the same molecule, the IC80 (Nakaseomyces glabratus [12]) was greater than 125 µM, the IC50 [13] was greater than 125 µM and the IC95 (Enterococcus faecalis [14]) was greater than 125 µM. It also gave an IC95 (Staphylococcus aureus [15]) greater than 125 µM, an IC80 (Trichosporon asahii [16]) greater than 125 µM and an IC50 (Aspergillus fumigatus [17]) greater than 125 µM. It also gave an IC95 (Staphylococcus aureus [18]) greater than 125 µM, an MIC (Mycobacterium avium [19]) of 16 µM (≈ 6.84 µg/mL) and an IC95 (Klebsiella pneumoniae [20]) greater than 125 µM. It also gave an IC50 (Lichtheimia corymbifera [21]) greater than 125 µM, an IC95 (Escherichia coli [22]) greater than 125 µM and an IC50 (Aspergillus fumigatus [23]) greater than 125 µM. For the same molecule, the IC95 (Klebsiella pneumoniae [24]) was greater than 125 µM, the MIC (Mycobacterium kansasii [25]) was 1 µM (≈ 0.427 µg/mL) and the IC80 (Candida tropicalis [26]) was greater than 125 µM. The IC50 [27] was greater than 125 µM, the MIC [28] was 1 µM (≈ 0.427 µg/mL) and the IC80 (Pichia kudriavzevii [29]) was greater than 125 µM. It also gave an IC95 (Pseudomonas aeruginosa [30]) greater than 125 µM, an IC95 (Staphylococcus aureus [31]) greater than 125 µM and an IC80 (Pichia kudriavzevii [32]) greater than 125 µM. The IC95 (Klebsiella pneumoniae [33]) was greater than 125 µM, the IC50 [34] was greater than 30 µM and the MIC (Mycobacterium kansasii [35]) was 1 µM (≈ 0.427 µg/mL). It also gave an IC95 (Enterococcus faecalis [36]) greater than 125 µM, a viability at 48 h, 30 µM [37] of 67% and an MIC (Mycobacterium kansasii [38]) of 2 µM (≈ 0.854 µg/mL). It also gave an MIC (Mycobacterium kansasii [39]) of 2 µM (≈ 0.854 µg/mL), a viability at 48 h, 30 µM [40] of 90% and an IC95 [41] greater than 125 µM. For the same molecule, the MIC (Mycobacterium kansasii [42]) was 4 µM (≈ 1.71 µg/mL), the IC95 (Pseudomonas aeruginosa [43]) was greater than 125 µM and the viability at 48 h, 30 µM [44] was 42%. The IC95 (Escherichia coli [45]) was greater than 125 µM, the IC95 [46] was greater than 125 µM and the IC50 (HeLa) was greater than 30 µM. The IC50 [47] was greater than 30 µM and the IC80 (Candida albicans [48]) was greater than 125 µM.
